# Patent publication US11667651B2, “Aminopyridine derivatives as phosphatidylinositol phosphate kinase inhibitors” (HiberCell, Inc., priority 2017, dated 2023)
# pIC50: −log10 of the molar value.
# Tests used:
# Format in all cases: biochemical
# PIP4K2B = target: T1, PIP4K2B (Homo sapiens, UniProt P78356); experiment: Trans-FI P kinase assay PIP4K2B (Table 4); details: compounds listed under IC50 bins; read-out: Trans-FI P kinase assays: PIP4K2B IC50
# T1 construct: made in house; host or cells: E. coli
# T1 sequence (P78356 1-416): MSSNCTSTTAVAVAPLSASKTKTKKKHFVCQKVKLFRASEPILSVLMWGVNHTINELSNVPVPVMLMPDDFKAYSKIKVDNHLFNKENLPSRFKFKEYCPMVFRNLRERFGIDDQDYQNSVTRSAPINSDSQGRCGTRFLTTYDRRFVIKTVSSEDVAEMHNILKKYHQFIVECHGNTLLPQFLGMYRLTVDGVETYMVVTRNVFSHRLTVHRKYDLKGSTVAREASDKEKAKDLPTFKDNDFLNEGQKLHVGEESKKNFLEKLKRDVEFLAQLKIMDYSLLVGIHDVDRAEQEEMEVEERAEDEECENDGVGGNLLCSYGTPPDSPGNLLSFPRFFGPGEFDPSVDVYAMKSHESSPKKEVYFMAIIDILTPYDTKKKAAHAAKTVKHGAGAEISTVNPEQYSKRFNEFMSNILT
# In short: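 Transcreener FI detection (Ex 584/Em 623) of GDP, converted via calibration curve, gives IC50 from residual activity versus log concentration (highest 4.8 μM). Reaction: 80 μM PI5P plus DOPE carrier, 100 μM GTP, 5 nM GST-tagged enzyme, pH 7.3 HEPES with MgCl2 and 5% DMSO, 2 h after 1 h enzyme-compound preincubation at 27° C.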
# PIP4K2A [1] = target: T2, PIP4K2A (Homo sapiens, UniProt P48426); experiment: ADP-glo kinase assay PIP4K 2A (Table 3); parameters: made in house; host or cells: E. coli; details: compounds listed under IC50 bins
# T2 sequence (P48426 1-406): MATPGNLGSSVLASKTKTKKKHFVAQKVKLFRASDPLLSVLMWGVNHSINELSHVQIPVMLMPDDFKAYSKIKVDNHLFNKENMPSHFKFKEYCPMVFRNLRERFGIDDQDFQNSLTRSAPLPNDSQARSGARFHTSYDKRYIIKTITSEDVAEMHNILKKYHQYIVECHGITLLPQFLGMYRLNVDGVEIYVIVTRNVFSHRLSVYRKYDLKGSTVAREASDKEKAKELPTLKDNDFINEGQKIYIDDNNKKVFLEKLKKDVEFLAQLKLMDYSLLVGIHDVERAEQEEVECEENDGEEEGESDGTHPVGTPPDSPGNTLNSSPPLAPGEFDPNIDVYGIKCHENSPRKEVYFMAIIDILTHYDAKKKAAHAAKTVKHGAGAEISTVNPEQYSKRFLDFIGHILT
# In short: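 Full-length PIP4K2A (4 nM in the mix) with 100 μM PI(5)P diC8 pre-incubated 15 min with compound in MOPS pH 7.2, 25 mM MgCl2; ATP added (60 μM solution), 1 h at RT. ADP formed read by ADP-Glo luminescence; 10-point curves versus DMSO controls fitted to IC50.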
# PIP4K2A [2] = target: T2, PIP4K2A; experiment: Kinase Assay PIP4K2 A (Table 2); parameters: 4 nM PIP4K2A (full length protein, SignalChem); purchased SignalChem; details: compounds listed under IC50 bins
# In short: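 Full-length PIP4K2A (4 nM in the added mix, with 100 μM PI(5)P diC8) pre-incubated 15 min at RT with compounds (10-point, 3-fold series) in 20 mM MOPS pH 7.2, 25 mM MgCl2, 0.005% Tween 20. ATP added from a 60 μM solution, 1 h at RT; ADP-Glo luminescence, IC50 fitted from % inhibition versus DMSO.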
pIC50 (PIP4K2B),pIC50 (PIP4K2A [1]),pIC50 (PIP4K2A [2]),Compound
7.00 to 8.00,7.00 to 8.00,7.00 to 8.00,"CN(C)C(=O)c1ccc(-c2ccc(Nc3cncc(NC(=O)CCc4ccccc4)c3)nc2)cc1 [Example 137, N,N-dimethyl-4-(6-((5-(3-phenylpropanamido)pyridin-3-yl)amino)pyridin-3-yl)benzamide]"
7.00 to 8.00,7.00 to 8.00,7.00 to 8.00,"CN(C)C(=O)c1ccc(-c2ccc(Nc3cncc(NC(=O)c4ccc(F)cc4)c3)nc2)cc1 [Example 139, 4-(6-((5-(4-fluorobenzamido)pyridin-3-yl)amino)pyridin-3-yl)-N,N-dimethylbenzamide]"
7.00 to 8.00,7.00 to 8.00,8.00 to 9.00,"COc1cccc(C(=O)Nc2cncc(Nc3ccc(-c4ccc(C(=O)N(C)C)cc4)cn3)c2)c1 [Example 141, 4-(6-((5-(3-methoxybenzamido)pyridin-3-yl)amino)pyridin-3-yl)-N,N-dimethylbenzamide]"
7.00 to 8.00,7.00 to 8.00,7.00 to 8.00,"COc1ccc(C(=O)Nc2cncc(Nc3ccc(-c4ccc(C(=O)N(C)C)cc4)cn3)c2)cc1 [Example 142, 4-(6-((5-(4-methoxybenzamido)pyridin-3-yl)amino)pyridin-3-yl)-N,N-dimethylbenzamide]"
7.00 to 8.00,7.00 to 8.00,8.00 to 9.00,"CN(C)C(=O)c1ccc(-c2ccc(Nc3cncc(NC(=O)c4cccc5[nH]ccc45)c3)nc2)cc1 [Example 143, N-(5-((5-(4-(dimethylcarbamoyl)phenyl)pyridin-2-yl)amino)pyridin-3-yl)-1H-indole-4-carboxamide]"
< 6.00,6.00 to 7.00,6.00 to 7.00,"CN(C)C(=O)c1cccc2ncc(Nc3ccc(-c4ccc(N5CCCC5=O)cc4)cn3)cc12 [Example 147, N,N-dimethyl-3-((5-(4-(2-oxopyrrolidin-1-yl)phenyl)pyridin-2-yl)amino)quinoline-5-carboxamide]"
< 6.00,< 6.00,6.00 to 7.00,"O=C(c1cccc2ncc(Nc3ccc(-c4ccc(N5CCCC5=O)cc4)cn3)cc12)N1CCCC1 [Example 148, 1-(4-(6-((5-(pyrrolidine-1-carbonyl)quinolin-3-yl)amino)pyridin-3-yl)phenyl)pyrrolidin-2-one]"
7.00 to 8.00,8.00 to 9.00,8.00 to 9.00,"O=C1CCCN1c1ccc(-c2ccc(Nc3cnc4c(c3)N(C(=O)C3CC3)CCO4)nc2)cc1 [Example 150, 1-(4-(6-((1-(cyclopropanecarbonyl)-2,3-dihydro-1H-pyrido[2,3-b][1,4]oxazin-7-yl)amino)pyridin-3-yl)phenyl)pyrrolidin-2-one]"
7.00 to 8.00,7.00 to 8.00,8.00 to 9.00,"CC(C)C(=O)N1CCOc2ncc(Nc3ccc(-c4ccc(N5CCCC5=O)cc4)cn3)cc21 [Example 152, 1-(4-(6-((1-isobutyryl-2,3-dihydro-1H-pyrido[2,3-b][1,4]oxazin-7-yl)amino)pyridin-3-yl)phenyl)pyrrolidin-2-one]"
7.00 to 8.00,7.00 to 8.00,7.00 to 8.00,"O=C1CCCN1c1ccc(-c2ccc(Nc3cnc4c(c3)N(S(=O)(=O)C3CC3)CCO4)nc2)cc1 [Example 154, 1-(4-(6-((1-(cyclopropylsulfonyl)-2,3-dihydro-1H-pyrido[2,3-b][1,4]oxazin-7-yl)amino)pyridin-3-yl)phenyl)pyrrolidin-2-one]"
7.00 to 8.00,8.00 to 9.00,8.00 to 9.00,"CC(C)(C)C(=O)N1CCOc2ncc(Nc3ccc(-c4ccc(N5CCCC5=O)cc4)cn3)cc21 [Example 155, 1-(4-(6-((1-pivaloyl-2,3-dihydro-1H-pyrido[2,3-b][1,4]oxazin-7-yl)amino)pyridin-3-yl)phenyl)pyrrolidin-2-one]"
7.00 to 8.00,7.00 to 8.00,7.00 to 8.00,"CN(c1cncc(Nc2ccc(-c3ccc(N4CCCC4=O)cc3)cn2)c1)S(C)(=O)=O [Example 157, N-methyl-N-(5-((5-(4-(2-oxopyrrolidin-1-yl)phenyl)pyridin-2-yl)amino)pyridin-3-yl)methanesulfonamide]"

# The remaining lines, values behind:
Compound,pIC50 (PIP4K2B),pIC50 (PIP4K2A [1]),pIC50 (PIP4K2A [2])
"CN(C)C(=O)c1ccc(-c2ccc(Nc3cncc(NC(=O)c4ccc5ncoc5c4)c3)nc2)cc1 [Example 136, N-(5-((5-(4-(dimethylcarbamoyl)phenyl)pyridin-2-yl)amino)pyridin-3-yl)benzo[d]oxazole-6-carboxamide]",7.00 to 8.00,7.00 to 8.00,7.00 to 8.00
"CN(C)C(=O)c1ccc(-c2ccc(Nc3cncc(NC(=O)C4CC4c4ccccc4)c3)nc2)cc1 (stereo not drawn) [Example 138, N,N-dimethyl-4-(6-((5-(2-phenylcyclopropane-1-carboxamido)pyridin-3-yl)amino)pyridin-3-yl)benzamide]",7.00 to 8.00,8.00 to 9.00,8.00 to 9.00
"CN(C)C(=O)c1ccc(-c2ccc(Nc3cncc(NC(=O)c4cccc(F)c4)c3)nc2)cc1 [Example 140, 4-(6-((5-(3-fluorobenzamido)pyridin-3-yl)amino)pyridin-3-yl)-N,N-dimethylbenzamide]",7.00 to 8.00,7.00 to 8.00,7.00 to 8.00
"CNC(=O)c1cccc2ncc(Nc3ccc(-c4ccc(N5CCCC5=O)cc4)cn3)cc12 [Example 146, N-methyl-3-((5-(4-(2-oxopyrrolidin-1-yl)phenyl)pyridin-2-yl)amino)quinoline-5-carboxamide]",7.00 to 8.00,7.00 to 8.00,6.00 to 7.00
"O=C(c1cccc2ncc(Nc3ccc(-c4ccc(N5CCCC5=O)cc4)cn3)cc12)N1CCC(O)C1 (stereo not drawn) [Example 149, 1-(4-(6-((5-(3-hydroxypyrrolidine-1-carbonyl)quinolin-3-yl)amino)pyridin-3-yl)phenyl)pyrrolidin-2-one]",< 6.00,< 6.00,6.00 to 7.00
"COC(=O)N1CCOc2ncc(Nc3ccc(-c4ccc(N5CCCC5=O)cc4)cn3)cc21 [Example 151, methyl 7-((5-(4-(2-oxopyrrolidin-1-yl)phenyl)pyridin-2-yl)amino)-2,3-dihydro-1H-pyrido[2,3-b][1,4]oxazine-1-carboxylate]",7.00 to 8.00,8.00 to 9.00,8.00 to 9.00
"CC(C)S(=O)(=O)N1CCOc2ncc(Nc3ccc(-c4ccc(N5CCCC5=O)cc4)cn3)cc21 [Example 153, 1-(4-(6-((1-(isopropylsulfonyl)-2,3-dihydro-1H-pyrido[2,3-b][1,4]oxazin-7-yl)amino)pyridin-3-yl)phenyl)pyrrolidin-2-one]",7.00 to 8.00,6.00 to 7.00,7.00 to 8.00
"CS(=O)(=O)N1CCOc2ncc(Nc3ccc(-c4ccc(N5CCCC5=O)cc4)cn3)cc21 [Example 156, 1-(4-(6-((1-(methylsulfonyl)-2,3-dihydro-1H-pyrido[2,3-b][1,4]oxazin-7-yl)amino)pyridin-3-yl)phenyl)pyrrolidin-2-one]",7.00 to 8.00,7.00 to 8.00,8.00 to 9.00
"COc1ncc(Nc2ccc(-c3ccc(N4CCCC4=O)cc3)cn2)cc1NC(C)=O [Example 158, N-(2-methoxy-5-((5-(4-(2-oxopyrrolidin-1-yl)phenyl)pyridin-2-yl)amino)pyridin-3-yl)acetamide]",7.00 to 8.00,6.00 to 7.00,6.00 to 7.00
"COc1ncc(Nc2ccc(-c3ccc(N4CCCC4=O)cc3)cn2)cc1NS(C)(=O)=O [Example 159, N-(2-methoxy-5-((5-(4-(2-oxopyrrolidin-1-yl)phenyl)pyridin-2-yl)amino)pyridin-3-yl)methanesulfonamide]",7.00 to 8.00,6.00 to 7.00,7.00 to 8.00
"COc1ncc(Nc2ccc(-c3ccc(N4CCCC4=O)cc3)cn2)cc1N(C)C(C)=O [Example 160, N-(2-methoxy-5-((5-(4-(2-oxopyrrolidin-1-yl)phenyl)pyridin-2-yl)amino)pyridin-3-yl)-N-methylacetamide]",< 6.00,< 6.00,< 6.00
